In assay [1] the test system is Zymomonas mobilis ZM4 wild-type. Nature of the assay: Bioscreen growth of Z. mobilis ZM4 wild-type in RM with inhibitors. It counts as cell-based. The settings on record: for Final Cell Density / Growth rate: ZM4. The protocol:
(§1) FIGS. 3A-3C. […] Z. mobilis strains were grown in RM (pH5.0) overnight, 20-μL culture were then transferred into 250-μL, RM media in the Bioscreen plate. […] Strains included in this study are: ZM4: Zymomonas mobilis ZM4 wild-type; AcR: ZM4 acetate tolerant mutant (Joachimstahl 1998); ZM4 (p42-0347): ZM4 containing a gateway plasmid p42-0347 over-expressing ZM4 gene ZMO0347; AcRIM0347: AcR insertional mutant of ZMO0347; AcRIM0347 (p42-0347): AcRIM0347 containing gateway plasmid p42-0347 over-expressing ZM4 gene ZMO0347. […] Triplicates were used for each condition.
(§2) FIGS. 4A-4E. […] Z. mobilis strains were grown in RM (pH5.0) overnight, 5-μL culture were then transferred into 250-μL RM media in the Bioscreen plate. […] Strains included in this study are: ZM4: Zymomonas mobilis ZM4 wild-type; AcR: ZM4 acetate tolerant mutant; ZM4 (p42-0347): ZM4 containing a gateway plasmid p42-0347 to express ZM4 gene ZMO0347; AcRIM0347: AcR insertional mutant of ZMO0347; AcRIM0347 (p42-0347): AcRIM0347 containing gateway plasmid p42-0347. […] Duplicate biological replicates were used for each condition.
(§3) FIGS. 5A-5E. […] Z. mobilis strains were grown in RM (pH 5.0) overnight, 5-μL culture were then transferred into 250-μL RM media in the Bioscreen plate. […] Strains included in this study are: ZM4: Zymomonas mobilis ZM4 wild-type; AcR: ZM4 acetate tolerant mutant; AcRIM0347: AcR insertional mutant of ZMO0347; AcRIM0347 (p42-0347): AcRIM0347 containing gateway plasmid p42-0347 over-expressing ZM4 gene ZMO0347.
(§4) American Type Culture Collection (ATCC31821) and the Z. mobilis acetate tolerant strain AcR has been described previously (Joachimsthal et al. 2000). ZM4 and AcR were cultured in RM medium at 30° C. S. cerevisiae wild-type, deletion mutant and GST-fusion ORF over-expression strains were obtained through Open Biosystems (Huntsville, Ala.). S. cerevisiae strains were cultured in rich YPD media. CM media with 2% glucose was used for S. cerevisiae wild-type and S. cerevisiae deletion mutants, CM media with 2% glucose minus uracil was used for S. cerevisiae GST-over expressing strains, 2% galactose was used to induce the GST-fusion strains. Plasmid-containing strains were routinely grown with antibiotics at the following concentrations (μg/mL): kanamycin of 50 for E. coli and 200 for ZM4; tetracycline, 10 for E. coli and 20 for ZM4; and gentamicin, 10 for E. coli. G418 of 200 for S. cerevisiae YKO deletion mutants. Growth was monitored turbidometrically by measuring optical density at 600nm periodically with the Bioscreen C automated microbiology growth curve analysis system (Growth Curve USA, Piscataway, N.J.).

The test system of assay [2] is AcR: ZM4 acetate tolerant mutant. It counts as cell-based, Zymomonas mobilis. The following applies: for Final Cell Density / Growth rate: AcR. The protocol:
as §1, §2, §3, §4

The test system of assay [3] is AcRIM0347 (p42-0347). It counts as cell-based, Zymomonas mobilis. The following applies: for Lag phase of AcRIM0347 (p42-0347) versus AcRIM0347 grown with inhibitor: Table 4, FIGS. 5A-5D. The protocol: as §1, §2, §3, §4
The subject of assay [4] is AcRIM0347: AcR insertional mutant of ZMO0347. It counts as cell-based, Zymomonas mobilis. The following applies: for Final Cell Density / Growth rate: AcRIM0347. The protocol:
as §1, §2, §3, §4

Assay [5] relates to Z. mobilis. Nature of the assay: Bioscreen growth of Z. mobilis with pretreatment inhibitors (strain not specified). The settings on record: for Relative inhibitory effect on Z. mobilis among vanillin, furfural and HMF: Table 4 conditions; for Time to complete active growth and reach the stationary phase: in the presence of the inhibitor, 11 h without any inhibitor (FIGS. 5A-5D). It counts as cell-based, Zymomonas mobilis. The protocol:
FIGS. 5A-5E. Z. mobilis Hfq conferred tolerance to different classes of pretreatment inhibitors. Z. mobilis strains were grown in RM (pH 5.0) overnight, 5-μL culture were then transferred into 250-μL RM media in the Bioscreen plate. The growth differences of different strains were monitored by Bioscreen (Growth Curves USA, NJ) under anaerobic conditions in RM, pH 5.0 (A), RM with 1 g/L vanillin, pH 5.0 (B), 1 g/L furfural, pH 5.0 (C), 1 g/L HMF, pH 5.0 (D) and 0.001% H2O2 (E). Strains included in this study are: ZM4: Zymomonas mobilis ZM4 wild-type; AcR: ZM4 acetate tolerant mutant; AcRIM0347: AcR insertional mutant of ZMO0347; AcRIM0347 (p42-0347): AcRIM0347 containing gateway plasmid p42-0347 over-expressing ZM4 gene ZMO0347. This experiment has been repeated at least three times with similar result for hydrogen peroxide growth and in duplicate for the vanillin growth.
as §4

Assay [6] relates to S. cerevisiae Lsm protein over-expressing strains. Nature of the assay: Bioscreen growth of S. cerevisiae Lsm protein over-expressing (GST) strains with inhibitors. It counts as cell-based. The protocol:
(§5) FIGS. 6A-6B. […] S. cerevisiae strains were grown in CM with 2% glucose for wild-type BY4741 and the deletion mutants, CM with 2% glucose minus uracil for GST over-expression strains. Five-μL culture was then transferred into 300-μL CM broth in the Bioscreen plate.
(§6) FIGS. 7A-7P. […] S. cerevisiae strains were grown in CM with 2% glucose (CM+glucose) for wild-type BY4741 and the deletion mutants, CM with 2% glucose and 2% galactose minus uracil (CM+glucose+2% galactose) for GST overexpression strains. A 5-μL culture was then transferred into 250-μL CM broth in the Bioscreen plate.
as §4

For assay [7], the system named is ZM4 (p42-0347). Kind of assay: Bioscreen growth of ZM4 (p42-0347) in RM with sodium and acetate ions. It counts as cell-based, Zymomonas mobilis. The settings on record: ZM4 (p42-0347); RM pH 5.0 supplemented with 195 mM of the chemical, anaerobic. The protocol: as §1, §2, §4
In assay [8] the test system is S. cerevisiae Lsm deletion mutants. It counts as cell-based. The following applies: 305 mM NaCl in CM broth. The protocol:
as §5, §6
American Type Culture Collection (ATCC31821) and the Z. mobilis acetate tolerant strain AcR has been described previously (Joachimsthal et al. 2000). ZM4 and AcR were cultured in RM medium at 30° C. S. cerevisiae wild-type, deletion mutant and GST-fusion ORF over-expression strains were obtained through Open Biosystems (Huntsville, Ala.). S. cerevisiae strains were cultured in rich YPD media. […] Growth was monitored turbidometrically by measuring optical density at 600nm periodically with the Bioscreen C automated microbiology growth curve analysis system (Growth Curve USA, Piscataway, N.J.).

Setting [9] is: RM with HMF 0.75 g/L, furfural or vanillin 1 g/L.
Where [10] appears, read: AcRIM0347(p42-0347), RM with HMF 0.75 g/L, furfural or vanillin 1 g/L.
Setting [11] is: RM pH 5.0 supplemented with 195 mM of the chemical, anaerobic, NA = lack of growth.
Setting [12] is: RM pH 5.0 supplemented with 195 mM of the chemical, anaerobic.
[13] abbreviates: AcRIM0347 (p42-0347), RM pH 5.0 supplemented with 195 mM of the chemical, anaerobic.

Where two headings read alike, the source gives them in different places.

For the compound `O=Cc1ccc(CO)o1` [HMF, hydroxymethyl furfural], the “Final Cell Density” value came out at 0.93 ± 0.003 OD600 nm in assay [1] (setting [9]), 0.96 ± 0.006 OD600 nm in assay [2] (setting [9]), 0.78 ± 0.02 OD600 nm in assay [3] (setting [10]) and 0.67 ± 0.03 OD600 nm in assay [4] (setting [9]). Moreover, the Growth rate in assay [1] (setting [9]) was 0.36 ± 0.02 h⁻¹; in assay [2] (setting [9]) it was 0.35 ± 0.01 h⁻¹; in assay [3] (setting [10]), 0.22 ± 0.001 h⁻¹; in assay [4] (setting [9]), 0.19 ± 0.02 h⁻¹. In assay [3], the “Lag phase of AcRIM0347 (p42-0347) versus AcRIM0347 grown with inhibitor” value is recorded as “shorter lag phases”. For the same compound, the “Relative inhibitory effect on Z. mobilis among vanillin, furfural and HMF” value in assay [5] is listed as “least effect”. Besides, in assay [5], the “Time to complete active growth and reach the stationary phase” value (“Time” for short) is recorded as “about 16 h”. Also, the “Growth of Lsm overexpression strains with inhibitor” value (shortened to “Growth … with inhibitor”) in assay [6] (1.5 g/L) is “slight growth advantage”.

For the compound `[Cl-].[Na+]` [NaCl, sodium chloride], the “Relative inhibitory effect on wild-type Z. mobilis growth among sodium and acetate salts” value in assay [1] (195 mM in RM) was “least negative influence”. Besides, the “Final Cell Density” value is 0.73 ± 0.01 OD600 nm in assay [1] (setting [11]); 0.96 ± 0.01 OD600 nm in assay [2] (setting [12]); 0.72 ± 0.02 OD600 nm in assay [3] (setting [13]); 0.73 ± 0.03 OD600 nm in assay [4] (setting [11]); 0.84 ± 0.01 OD600 nm in assay [7]. The Growth rate in assay [1] (setting [11]) was 0.24 ± 0.008 h⁻¹; in assay [2] (setting [12]), 0.29 ± 0.005 h⁻¹; in assay [3] (setting [13]) it was 0.22 ± 0.009 h⁻¹; in assay [4] (setting [11]), 0.21 ± 0.008 h⁻¹; in assay [7], 0.25 ± 0.008 h⁻¹. Also, the “Reduction of growth rate and final cell density of AcRIM0347 compared to parental strain AcR” value in assay [4] (195 mM in RM) is given as “reduced by at least a quarter”. Besides, in assay [8], the “Growth differences between Lsm mutants and wild-type BY4741” value is listed as “not observed”. Also, the “Growth of Lsm overexpression strains compared to wild-type BY4741” value in assay [6] (305 mM NaCl) is on record as “grew similarly to wild-type BY4741”.

As for `COc1cc(C=O)ccc1O` [Vanillin, vanillin], the “Final Cell Density” value in assay [1] (setting [9]) is on record as 0.69 ± 0.006 OD600 nm; in assay [2] (setting [9]), 0.71 ± 0.01 OD600 nm; in assay [3] (setting [10]) it was 0.70 ± 0.01 OD600 nm; in assay [4] (setting [9]), 0.66 ± 0.01 OD600 nm. Also, the Growth rate is 0.26 ± 0.001 h⁻¹ in assay [1] (setting [9]), 0.26 ± 0.01 h⁻¹ in assay [2] (setting [9]), 0.20 ± 0.003 h⁻¹ in assay [3] (setting [10]) and 0.20 ± 0.006 h⁻¹ in assay [4] (setting [9]). The “Lag phase of AcRIM0347 (p42-0347) versus AcRIM0347 grown with inhibitor” value in assay [3] was “shorter lag phases”. For the same compound, the “Relative inhibitory effect on Z. mobilis among vanillin, furfural and HMF” value in assay [5] was “most significant inhibitory effect”. Further, in assay [5], the “Time” value is recorded as roughly 21 h. Further, the “Growth … with inhibitor” value in assay [6] (0.75 g/L) is recorded as “detrimental effect on growth”.

`O=Cc1ccco1` [Furfural, furfural]: the “Final Cell Density” value in assay [1] (setting [9]) is 0.88 ± 0.006 OD600 nm; in assay [2] (setting [9]), 0.89 ± 0.009 OD600 nm; in assay [3] (setting [10]), 0.80 ± 0.02 OD600 nm; in assay [4] (setting [9]) it was 0.67 ± 0.001 OD600 nm. The Growth rate was determined as 0.31 ± 0.01 h⁻¹ in assay [1] (setting [9]), 0.30 ± 0.005 h⁻¹ in assay [2] (setting [9]), 0.20 ± 0.01 h⁻¹ in assay [3] (setting [10]) and 0.19 ± 0.03 h⁻¹ in assay [4] (setting [9]). For the same compound, the “Lag phase of AcRIM0347 (p42-0347) versus AcRIM0347 grown with inhibitor” value in assay [3] is “shorter lag phases”. Moreover, the “Time” value in assay [5] is given as roughly 19 h. Further, the “Growth … with inhibitor” value in assay [6] (1.5 g/L) is “slight growth advantage”.

Consider `CC(=O)[O-].[K+]` [Kac, potassium acetate], for which the “Final Cell Density” value is reported as 0.42 ± 0.002 OD600 nm in assay [1] (setting [11]), 0.40 ± 0.000 OD600 nm in assay [2] (setting [12]), 0.28 ± 0.007 OD600 nm in assay [3] (setting [13]) and 0.34 ± 0.004 OD600 nm in assay [7]. Further, the Growth rate in assay [1] (setting [11]) worked out at 0.15 ± 0.004 h⁻¹; in assay [2] (setting [12]) it was 0.12 ± 0.000 h⁻¹; in assay [3] (setting [13]) it was 0.09 ± 0.003 h⁻¹; in assay [7], 0.12 ± 0.006 h⁻¹. The “Growth of hfq mutant AcRIM0347 in the presence of acetate salt” value in assay [4] (195 mM in RM) is “unable to grow”.

`OO` [H2O2, hydrogen peroxide]: in assay [1] (0.001% H2O2), the “Growth of ZM4 in RM medium with H2O2” value is reported as “grew well”. In assay [2] (0.001% H2O2), the “Growth of AcR in RM medium with H2O2” value was “grew well”. For the same compound, the “Growth of AcRIM0347(p42-0347) in RM medium with H2O2” value in assay [3] (0.001% H2O2) is given as “to grow”. Further, the “Growth of AcRIM0347 in RM medium with H2O2” value in assay [4] (0.001% H2O2) was “no observable growth”.

In the case of `CC(=O)O.N` [NH4OAc, ammonium acetate], the “Final Cell Density” value is given as 0.43 ± 0.01 OD600 nm in assay [1] (setting [11]), 0.42 ± 0.006 OD600 nm in assay [2] (setting [12]), 0.32 ± 0.007 OD600 nm in assay [3] (setting [13]) and 0.37 ± 0.008 OD600 nm in assay [7]. Also, the Growth rate was 0.20 ± 0.008 h⁻¹ in assay [1] (setting [11]), 0.19 ± 0.005 h⁻¹ in assay [2] (setting [12]), 0.22 ± 0.002 h⁻¹ in assay [3] (setting [13]) and 0.19 ± 0.007 h⁻¹ in assay [7]. Also, the “Growth of hfq mutant AcRIM0347 in the presence of acetate salt” value in assay [4] (195 mM in RM) is listed as “unable to grow”.

For the origin of these results see patent US8790902B2, “Microorganisms having enhanced tolerance to inhibitors and stress” (UT-Batelle, LLC, priority 2009, dated 2014).
